From ChEMBL document CHEMBL1201862, “PubChem BioAssay data set” (2004)
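These data come from cells grown in 96-well plates and exposed to compound for 48 hours at five concentrations. Here, GI50 denotes the concentration required for 50% inhibition of growth.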 Calls of active or inactive are those of the source. Rule as the data show it: active = GI50 up to about 1.1 µM and inactive = higher.

Assays:
Test in all cases: NCI tumour cell line growth inhibition, 48 h
[1] = system: A549
[2] = system: ACHN
[3] = system: BT-549
[4] = system: HCT-116
[5] = system: LOX IMVI
[6] = system: MCF7
[7] = system: Malme-3M
[8] = system: NCI/ADR-RES
[9] = system: OVCAR-5
[10] = system: OVCAR-8
[11] = system: RPMI-8226
[12] = system: SF-295
[13] = system: SNB-19
[14] = system: SNB-75
[15] = system: SW-620
[16] = system: U-251
[17] = system: UACC-62
[18] = system: UO-31
[19] = system: SR

SMILES | GI50 [1] | GI50 [2] | GI50 [3] | GI50 [4] | GI50 [5] | GI50 [6] | GI50 [7] | GI50 [8] | GI50 [9] | GI50 [10] | GI50 [11] | GI50 [12] | GI50 [13] | GI50 [14] | GI50 [15] | GI50 [16] | GI50 [17] | GI50 [18] | GI50 [19]
COc1ccc(/C=C2\CC3C4CC=C5C[C@@H](O)CC[C@]5(C)C4CC[C@]3(C)C2=O)cc1OC (stereo not given in full) | 27.9 µM (inactive) | 24.5 µM (inactive) | 44.6 µM (inactive) | 24 µM (inactive) | 30.8 µM (inactive) | 23.3 µM (inactive) | 27.2 µM (inactive) | 45 µM (inactive) | 43.5 µM (inactive) | 43.3 µM (inactive) | 10.2 µM (inactive) | 11.4 µM (inactive) | 62.4 µM (inactive) | 16 µM (inactive) | 65.6 µM (inactive) | 26.2 µM (inactive) | 42.9 µM (inactive) | 14.8 µM (inactive) | 
O=[N+]([O-])c1ccc(NS(=O)(=O)C(F)(F)F)cc1 | > 100 µM (inactive) | > 100 µM (inactive) | > 100 µM (inactive) | > 100 µM (inactive) | > 100 µM (inactive) | > 100 µM (inactive) |  | > 100 µM (inactive) | > 100 µM (inactive) | > 100 µM (inactive) |  | > 100 µM (inactive) | > 100 µM (inactive) | > 100 µM (inactive) | > 100 µM (inactive) | > 100 µM (inactive) | > 100 µM (inactive) | > 100 µM (inactive) | 
CSc1ncc2c(n1)-c1ccccc1OC2 | 52.2 µM (inactive) | 45.9 µM (inactive) | 43 µM (inactive) | 70.8 µM (inactive) | 37.7 µM (inactive) | 43.1 µM (inactive) |  | 71.3 µM (inactive) | > 100 µM (inactive) | 79.1 µM (inactive) | > 100 µM (inactive) | 94.2 µM (inactive) | 75.9 µM (inactive) | 43.6 µM (inactive) | 62.2 µM (inactive) | 51.3 µM (inactive) | 78.2 µM (inactive) | 38.8 µM (inactive) | 61 µM (inactive)
O=P1(N(CCCl)CCCl)Oc2ccc(Cl)cc2C(C(Cl)(Cl)Cl)c2cc(Cl)ccc2O1 (stereo not given) | 5.4 µM (inactive) | 15.5 µM (inactive) | 29.8 µM (inactive) | 4.55 µM (inactive) | 15.2 µM (inactive) | 10.4 µM (inactive) |  | 14.8 µM (inactive) | 32.8 µM (inactive) | 25.5 µM (inactive) | 3.77 µM (inactive) | 3.68 µM (inactive) |  | 10.9 µM (inactive) | 11.2 µM (inactive) | 13.7 µM (inactive) | 12.6 µM (inactive) | 10.9 µM (inactive) | 3.94 µM (inactive)
CCOP(=O)(CC1OC(CO)C(O)C1O)OCC (stereo not given) | > 100 µM (inactive) | > 100 µM (inactive) | > 100 µM (inactive) | > 100 µM (inactive) | > 100 µM (inactive) | > 100 µM (inactive) | > 100 µM (inactive) |  | > 100 µM (inactive) |  | > 100 µM (inactive) | > 100 µM (inactive) | > 100 µM (inactive) | > 100 µM (inactive) | > 100 µM (inactive) | > 100 µM (inactive) | > 100 µM (inactive) | > 100 µM (inactive) | > 100 µM (inactive)
Cc1nc(C)c(C(=O)NNC(=O)Cc2ccccc2)cc1C(=O)NNC(=O)Cc1ccccc1 | > 100 µM (inactive) | > 100 µM (inactive) | > 100 µM (inactive) | > 100 µM (inactive) | > 100 µM (inactive) | > 100 µM (inactive) |  | > 100 µM (inactive) | > 100 µM (inactive) | > 100 µM (inactive) | > 100 µM (inactive) | > 100 µM (inactive) | > 100 µM (inactive) | 94 µM (inactive) | > 100 µM (inactive) | > 100 µM (inactive) | > 100 µM (inactive) | > 100 µM (inactive) | 
[N-]=[N+]=NC1(c2ccccc2)C(=O)c2cccc3c4ccccc4n(c23)C1=O (stereo not given) | 76.2 µM (inactive) | > 100 µM (inactive) | > 100 µM (inactive) | 84.3 µM (inactive) | > 100 µM (inactive) | 54 µM (inactive) | > 100 µM (inactive) | 33.5 µM (inactive) | > 100 µM (inactive) | > 100 µM (inactive) | 45.3 µM (inactive) | 57.8 µM (inactive) | > 100 µM (inactive) | > 100 µM (inactive) | > 100 µM (inactive) | > 100 µM (inactive) | 50 µM (inactive) | > 100 µM (inactive) | 
O=C1CCC2(c3ccc(Cl)cc3)Nc3ncncc3N12 (stereo not given) | > 10 µM (inactive) | > 10 µM (inactive) | > 10 µM (inactive) |  | > 10 µM (inactive) | > 10 µM (inactive) | > 10 µM (inactive) | > 10 µM (inactive) | > 10 µM (inactive) | > 10 µM (inactive) |  | > 10 µM (inactive) | > 10 µM (inactive) | > 10 µM (inactive) | > 10 µM (inactive) | > 10 µM (inactive) | > 10 µM (inactive) | > 10 µM (inactive) | 
Cc1cccc2nc3c(=O)[nH]c(=O)nc-3n(C)c12 | 84.7 µM (inactive) | > 100 µM (inactive) | 84.9 µM (inactive) | 30.4 µM (inactive) | 54 µM (inactive) | 34.5 µM (inactive) | 21.3 µM (inactive) | 82.2 µM (inactive) | > 100 µM (inactive) | 52 µM (inactive) | 29.7 µM (inactive) | 92.9 µM (inactive) | 71.3 µM (inactive) | > 100 µM (inactive) | 39.9 µM (inactive) | 86.5 µM (inactive) | 31.9 µM (inactive) |  | 
COc1ccc(CC2C(=O)NC(C)C(=O)N(C)C3C(=O)N(C)C(Cc4ccc(O)c(c4)Oc4ccc(cc4)C3O)C(=O)NC(C)C(=O)NC(C)C(=O)N2C)cc1.COc1ccc(CC2C(=O)NC(C)C(=O)N(C)C3Cc4ccc(cc4)Oc4cc(ccc4O)CC(C(=O)NC(C)C(=O)NC(C)C(=O)N2C)N(C)C3=O)cc1 (stereo not given) | 0.0177 µM (active) | 0.0995 µM (active) | 0.00321 µM (active) | 0.00108 µM (active) | 0.00237 µM (active) | 0.00215 µM (active) |  | 1.5 µM (inactive) | 0.00995 µM (active) | 0.0128 µM (active) | 0.0019 µM (active) | 0.0274 µM (active) | 0.000638 µM (active) | 0.01 µM (active) | 0.00718 µM (active) | 0.0012 µM (active) | 0.00266 µM (active) | 0.136 µM (active) | 0.01 µM (active)
CCn1c2ccccc2c2cc(/N=N\c3ccc(C#N)cc3)ccc21 | 26.9 µM (inactive) | > 100 µM (inactive) | 20.7 µM (inactive) | 50.4 µM (inactive) | 23.7 µM (inactive) | 4.41 µM (inactive) | 18.7 µM (inactive) |  | 31.6 µM (inactive) | 39.3 µM (inactive) |  | 32.1 µM (inactive) | 19.4 µM (inactive) | 30.4 µM (inactive) | > 100 µM (inactive) | 29.8 µM (inactive) | 61.4 µM (inactive) | 75.7 µM (inactive) | 
CC(C)OP(=O)(c1ccccc1)c1ccc2c(c1)OCCOCCOCCOCCO2 (stereo not given) | > 100 µM (inactive) | > 100 µM (inactive) | > 100 µM (inactive) | > 100 µM (inactive) | > 100 µM (inactive) | > 100 µM (inactive) | > 100 µM (inactive) |  |  | > 100 µM (inactive) | > 100 µM (inactive) | > 100 µM (inactive) | > 100 µM (inactive) | > 100 µM (inactive) | > 100 µM (inactive) |  | > 100 µM (inactive) | > 100 µM (inactive) | 
Cc1nc(OCc2ccccc2)c2ncn(CCO)c2n1 | > 100 µM (inactive) | > 100 µM (inactive) | > 100 µM (inactive) | > 100 µM (inactive) | > 100 µM (inactive) | > 100 µM (inactive) |  | > 100 µM (inactive) | > 100 µM (inactive) |  | > 100 µM (inactive) | > 100 µM (inactive) | > 100 µM (inactive) |  | > 100 µM (inactive) | > 100 µM (inactive) | > 100 µM (inactive) | > 100 µM (inactive) | > 100 µM (inactive)
Nc1ccn(C2CC3OCC3O2)c(=O)n1 (stereo not given) | > 100 µM (inactive) | > 100 µM (inactive) | > 100 µM (inactive) | > 100 µM (inactive) | > 100 µM (inactive) | > 100 µM (inactive) |  | > 100 µM (inactive) | > 100 µM (inactive) | > 100 µM (inactive) | > 100 µM (inactive) | > 100 µM (inactive) | > 100 µM (inactive) | > 100 µM (inactive) | > 100 µM (inactive) | > 100 µM (inactive) | > 100 µM (inactive) | > 100 µM (inactive) | > 100 µM (inactive)
O=C1/C(=C/c2ccc(Cl)cc2)Oc2cc(O)ccc21 [6-HYDROXY-4'-CHLORO AURONE] | 30.1 µM (inactive) | 28.1 µM (inactive) | 26.8 µM (inactive) | 30.5 µM (inactive) |  | 34 µM (inactive) |  | 24.9 µM (inactive) |  | 31.9 µM (inactive) | 30.6 µM (inactive) | 38.4 µM (inactive) | 26.6 µM (inactive) | 31.6 µM (inactive) | 44.6 µM (inactive) | 26.5 µM (inactive) | 34.2 µM (inactive) | 20.5 µM (inactive) | 20.2 µM (inactive)
CC1(C)CC(O)CC(C)(C)N1O [TEMPOL HYDROXYLAMINE] | > 100 µM (inactive) | > 100 µM (inactive) | > 100 µM (inactive) | > 100 µM (inactive) |  | > 100 µM (inactive) | > 100 µM (inactive) | > 100 µM (inactive) | > 100 µM (inactive) | > 100 µM (inactive) | > 100 µM (inactive) | > 100 µM (inactive) | > 100 µM (inactive) | > 100 µM (inactive) | > 100 µM (inactive) |  | > 100 µM (inactive) | > 100 µM (inactive) | > 100 µM (inactive)
